In one experiment the test system is CRD7. Nature of the experiment: phage spot ELISA on CRD7. The class given is binding. The conditions noted are these: for S/N: phage spot ELISA signal/noise; for S/N / ELISA: S3 Table sheet CRD7; for ELISA: phage spot ELISA signal; for ELISA signal: phage spot ELISA of the clone, positive hit: signal > 0.3 and signal/noise > 2; for ELISA s/n: phage spot ELISA signal/noise ratio. The text has this: (§1) To determine the performance of the libraries for ligand discovery we chose a panel of eight protein targets, which have no structural homology and a wide mass range (Fig 7C). We screened these eight targets with solution panning strategy and two additional plate panning for CD8α/β and CD28, thus ten panning campaigns in total. We consider clones showing spot phage ELISA signal > 0.3 and signal/noise ratio > 2 as positive hits. At least one binding hit was discovered for nine out of the ten panning campaigns, surpassing the success rate of the best DCP scaffolds reported previously. We also obtained the NGS data for these screening and the ranking of clones for their enrichment along the rounds of screening was analyzed and considered the top-ranking clones as potential hits. Based on their sequence diversity we selected 16 potential hits spanning five protein targets for peptide synthesis in their linear form. Seven of these are hits with positive phage ELISA signal and nine were selected based on NGS ranking without spot ELISA available. Subsequently, we conducted in vitro folding experiments on these peptides in various buffers. We observed a strong propensity for spontaneous folding regardless of the buffer condition. All HCP hits tested successfully folded into three-disulfide-containing product within two days in a universal buffer system (PBS, pH 7.4, 50% DMSO) without the need for a redox pair, as shown in Fig 8A. The binding of these folded peptides to their respective target proteins was confirmed using SPR (Table 4 and S1 Data) and binding kinetics are exemplified by the high-affinity peptide 5ji4-CRD7-2 (see Fig 8B). Among seven selected ELISA-positive hits, all of them were successfully synthesized and in vitro folded with three disulfide bonds and five were proven to be validated binders by SPR (Table 4). Nine peptides selected from the NGS ranking were synthesized and folded with the expected number of disulfide bonds and five of them bound to their target with affinities in the μM range as determined by SPR (Table 4). In general, binding affinities for these SPR-validated initial hits are weak, with Kd values in the micromolar range and fast on- and off-rates. There are two exceptions with binding affinities in the nanomolar range.
(§2) The 5ji4 libraries were constructed following the Kunkel mutagenesis method and the solution panning protocol was followed as previously described. After four to five rounds of binding selection, while eluted pool was subjected to NGS analysis, individual phage clones were also picked and analyzed with phage spot ELISA. Positive clones were subjected to SANGER sequencing.

The test system of the next experiment is CD28. Nature of the experiment: phage spot ELISA on CD28. It is filed as binding. The conditions noted are these: S3 Table sheet CD28-1 (panning campaign 1); for S/N: phage spot ELISA signal/noise; for ELISA: phage spot ELISA signal.
Source text: as §1, §2

Where a SMILES comes first, the peptide text is derived from it. Bridges are numbered along the chain shown (N, C = ends).

As for “PCECRWMFYSTWELSSEECERLCRKLGVTNCRVHCG [CRD7 clone 4, phage clone, 5JI4 library, CRD7 panning]”, in the experiment on CRD7, the S/N is on record as 4 and the ELISA came out at 0.28.
For “PCECPIRPYGVPVKSSEECERLCRKLGVTNCRVHCG [CRD7 clone 2, phage clone, 5JI4 library, CRD7 panning]”, in the experiment on CRD7, the S/N turned out to be 4.654 and the ELISA worked out at 0.377.
Consider `CC[C@H](C)[C@@H]1NC(=O)[C@@H]2CCCN2C(=O)[C@@H]2CSSC[C@H](NC(=O)[C@H](CCC(=O)O)NC(=O)[C@H](CCC(=O)O)NC(=O)[C@H](CO)NC(=O)[C@H](CO)NC(=O)[C@H](CCCCN)NC(=O)[C@H](C(C)C)NC(=O)[C@@H]3CCCN3C(=O)[C@H](C(C)C)NC(=O)CNC(=O)[C@H](Cc3ccc(O)cc3)NC(=O)[C@@H]3CCCN3C(=O)[C@H](CCCNC(=N)N)NC1=O)C(=O)N[C@@H](CCC(=O)O)C(=O)N[C@@H](CCCNC(=N)N)C(=O)N[C@@H](CC(C)C)C(=O)N[C@H]1CSSC[C@H](NC(=O)[C@H](CC(N)=O)NC(=O)[C@H]([C@@H](C)O)NC(=O)[C@H](C(C)C)NC(=O)CNC(=O)[C@H](CC(C)C)NC(=O)[C@H](CCCCN)NC(=O)[C@H](CCCNC(=N)N)NC1=O)C(=O)N[C@@H](CCCNC(=N)N)C(=O)N[C@@H](C(C)C)C(=O)N[C@@H](Cc1c[nH]cn1)C(=O)N[C@H](C(=O)NCC(=O)O)CSSC[C@H](NC(=O)[C@@H]1CCCN1)C(=O)N[C@@H](CCC(=O)O)C(=O)N2` [5ji4-CRD7-2] (H-PCECPIRPYGVPVKSSEECERLCRKLGVTNCRVHCG-OH; disulfide 2-35, 4-19, 23-31), for which, in the experiment with CRD7, the ELISA signal came to 0.37 and the ELISA s/n is 4.60.
In the experiment with CRD7, “PCECDVNGETYTVSSSEECGRLCMNDWATTCRVHCG [CRD7 clone 7, phage clone, 5JI4 library, CRD7 panning]” came in with a S/N of 14.5714 and an ELISA of 0.918.
In the experiment on CRD7, “PCECDVNGETYTVSSSEECGRLCMQPWAHTCRVHCG [CRD7 clone 9, phage clone, 5JI4 library, CRD7 panning]” came in with a S/N of 4.522 and an ELISA of 0.312.
For “PCECPSSVYWYFISSSEECERLCRKLGVTNCRVHCG [CRD7 clone 6, phage clone, 5JI4 library, CRD7 panning]” the same measures were 3.75 and 0.225.
For “LECSHLQMFVIYNSSEECERLCRKLGVTSCRVHCG [CD28-1 clone 10, phage clone, 5JI4 library, CD28-1 panning]”, in the experiment with CD28, the S/N is on record as 2.405 and the ELISA is reported as 0.202.
In the experiment on CRD7, “PCECPATVHWYFIGSSEECERLCRKLGVTNSRVHCD [CRD7 clone 1, phage clone, 5JI4 library, CRD7 panning]” showed a S/N of 7.871 and an ELISA of 0.488.
Consider “PCECQENTTFIIYSSSEECERLCRKLGVTNCRVHCG [CD28-1 clone 12, phage clone, 5JI4 library, CD28-1 panning]”, for which, in the experiment with CD28, the S/N was 1.979 and the ELISA is on record as 0.192.
As for “PCECDVNGETYTVSSSEECERPCSWNEAFSCRVHCG [CD28-1 clone 15, phage clone, 5JI4 library, CD28-1 panning]”, in the experiment with CD28, the S/N is given as 2.576 and the ELISA is 0.219.
In the experiment on CD28, “RANATEWVPWIIYQSSEECERLCRKLGVTNCRVHCG [CD28-1 clone 2, phage clone, 5JI4 library, CD28-1 panning]” came in with a S/N of 5.637 and an ELISA of 0.5.
In the experiment on CRD7, “PCECIWANYVGYPFSSEECERLCRKLGVTNCRVHCG [CRD7 clone 3, phage clone, 5JI4 library, CRD7 panning]” yielded a S/N of 2.388 and an ELISA of 0.289.
In the experiment on CD28, “PCEFARQNVFIVHSSSEECERLCRTLGVTNCRVHCG [CD28-1 clone 8, phage clone, 5JI4 library, CD28-1 panning]” gave a S/N of 1.6194 and an ELISA of 0.217.
Take `CSCC[C@@H]1NC(=O)[C@@H]2CSSC[C@H](NC(=O)[C@H]([C@@H](C)O)NC(=O)[C@H]([C@@H](C)O)NC(=O)[C@H](C)NC(=O)[C@H](Cc3c[nH]c4ccccc34)NC(=O)[C@H](CC(=O)O)NC(=O)[C@H](CC(N)=O)NC1=O)C(=O)N[C@@H](CCCNC(=N)N)C(=O)N[C@@H](C(C)C)C(=O)N[C@@H](Cc1c[nH]cn1)C(=O)N[C@H](C(=O)NCC(=O)O)CSSC[C@H](NC(=O)[C@@H]1CCCN1)C(=O)N[C@@H](CCC(=O)O)C(=O)N[C@H]1CSSC[C@H](NC(=O)[C@H](CCC(=O)O)NC(=O)[C@H](CCC(=O)O)NC(=O)[C@H](CO)NC(=O)[C@H](CO)NC(=O)[C@H](CO)NC(=O)[C@H](C(C)C)NC(=O)[C@H]([C@@H](C)O)NC(=O)[C@H](Cc3ccc(O)cc3)NC(=O)[C@H]([C@@H](C)O)NC(=O)[C@H](CCC(=O)O)NC(=O)CNC(=O)[C@H](CC(N)=O)NC(=O)[C@H](C(C)C)NC(=O)[C@H](CC(=O)O)NC1=O)C(=O)NCC(=O)N[C@@H](CCCNC(=N)N)C(=O)N[C@@H](CC(C)C)C(=O)N2` [5ji4-CRD7-3] (H-PCECDVNGETYTVSSSEECGRLCMNDWATTCRVHCG-OH; disulfide 2-35, 4-19, 23-31): in the experiment on CRD7, the ELISA signal amounted to 0.65 and the ELISA s/n stood at 9.52.
In the experiment with CD28, “PCECDVNGETYTVSSSEGCERLCSWDQGKWCRVHCG [CD28-1 clone 13, phage clone, 5JI4 library, CD28-1 panning]” came in with a S/N of 2.33 and an ELISA of 0.247.
For “PCECDVNGETYTVSSSEGCERLCSWDTRRMCRVHCG [CD28-1 clone 14, phage clone, 5JI4 library, CD28-1 panning]” the same measures were 2.852 and 0.231.
For “PCECDHMQYFILYESSEECERLCRKLGVTNCRVHCG [CD28-1 clone 7, phage clone, 5JI4 library, CD28-1 panning]” the same measures were 2.516 and 0.234.
In the experiment with CRD7, “PCECNYIPWIWIPQSSEECERLCRKLGVTNCRVHCG [CRD7 clone 5, phage clone, 5JI4 library, CRD7 panning]” returned a S/N of 3.588 and an ELISA of 0.244.
For the compound “PCECDVNGETYTVSSSEECGRLCMTDWVTSCRVHCG [CRD7 clone 8, phage clone, 5JI4 library, CRD7 panning]”, in the experiment on CRD7, the S/N was found to be 5.905 and the ELISA is reported as 0.372.
For “PANAVIRTWIIFASSEECERLCRKLGVTNCRVHCG [CD28-1 clone 5, phage clone, 5JI4 library, CD28-1 panning]”, in the experiment with CD28, the S/N turned out to be 3.189 and the ELISA was 0.3.
Consider “PRECDEDNIWIIANSSEECERLCRKLGVTNCRVHCG [CD28-1 clone 9, phage clone, 5JI4 library, CD28-1 panning]”, for which, in the experiment with CD28, the S/N was 1.511 and the ELISA came out at 0.213.
